Results published in PubChem BioAssay AID1963436 (Molecular Pharmacology Branch, DTP, NCI, 2024).

System: OVCAR-5 complex spheroid (HUVEC/MSC), viability % T/C
Test: Anticancer human tumor OVCAR-5 cell line growth inhibition [Asc];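 further: spheroids exposed to agents for 7 days before readout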;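 on viability, T/C: 100% = DMSO vehicle-treated wells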
Details: for IC50: curve of first compound; for viability, T/C: stronger effect = lower value
Procedure, shortened: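 Tumor cells were grown as multicellular spheroids with stromal HUVEC and mesenchymal stem cells and treated singly or in combination. Concentrations fell in half-log steps from the clinical Cmax, or from 10 microM where none was known.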

[1] = second compound 0.1 µM, first compound 0.00316 µM
[2] = second compound 0.1 µM, first compound 0.01 µM
[3] = second compound 0.1 µM, first compound 0.0316 µM
[4] = second compound 0.1 µM, first compound 0.1 µM
[5] = second compound 0.1 µM, first compound 0.316 µM
[6] = second compound 0.1 µM, first compound 1 µM
[7] = second compound 0.316 µM, first compound 0.00316 µM
[8] = second compound 0.316 µM, first compound 0.01 µM
[9] = second compound 0.316 µM, first compound 0.0316 µM
[10] = second compound 0.316 µM, first compound 0.1 µM
[11] = second compound 0.316 µM, first compound 0.316 µM
[12] = second compound 0.316 µM, first compound 1 µM
[13] = second compound 1 µM, first compound 0.00316 µM
[14] = second compound 1 µM, first compound 0.01 µM
[15] = second compound 1 µM, first compound 0.0316 µM
[16] = second compound 1 µM, first compound 0.1 µM
[17] = second compound 1 µM, first compound 0.316 µM
[18] = second compound 1 µM, first compound 1 µM
[19] = second compound 3.16 µM, first compound 0.00316 µM
[20] = second compound 3.16 µM, first compound 0.01 µM
[21] = second compound 3.16 µM, first compound 0.0316 µM
[22] = second compound 3.16 µM, first compound 0.1 µM
[23] = second compound 3.16 µM, first compound 0.316 µM
[24] = second compound 3.16 µM, first compound 1 µM
[25] = second compound 10 µM, first compound 0.00316 µM
[26] = second compound 10 µM, first compound 0.01 µM
[27] = second compound 10 µM, first compound 0.0316 µM
[28] = second compound 10 µM, first compound 0.1 µM
[29] = second compound 10 µM, first compound 0.316 µM
[30] = second compound 10 µM, first compound 1 µM

CCN1CCN(Cc2ccc(Nc3ncc(F)c(-c4cc(F)c5nc(C)n(C(C)C)c5c4)n3)nc2)CC1 + Cc1c(S(C)(=O)=O)c(-c2cc(F)cc(N3CCN(c4ccc(NS(=O)(=O)c5ccc(NC(CCN6CCC(C(=O)OCCCP(=O)(O)O)CC6)CSc6ccccc6)c(S(=O)(=O)C(F)(F)F)c5)cc4)CC3)c2)c(-c2ccc(Cl)cc2)n1C(C)C
IC50 (second compound 0.1 µM): > 1 µM
IC50 (second compound 0.316 µM): > 1 µM
IC50 (second compound 1 µM): > 1 µM
IC50 (second compound 3.16 µM): > 1 µM
IC50 (second compound 10 µM): > 1 µM
viability, T/C [1]: 94.7%
viability, T/C [2]: 83.5%
viability, T/C [3]: 66%
viability, T/C [4]: 61.5%
viability, T/C [5]: 69.6%
viability, T/C [6]: 56.1%
viability, T/C [7]: 79.4%
viability, T/C [8]: 74.1%
viability, T/C [9]: 68.6%
viability, T/C [10]: 56.1%
viability, T/C [11]: 61.8%
viability, T/C [12]: 57%
viability, T/C [13]: 80.1%
viability, T/C [14]: 80.4%
viability, T/C [15]: 63.5%
viability, T/C [16]: 55%
viability, T/C [17]: 58.3%
viability, T/C [18]: 50.8%
viability, T/C [19]: 77%
viability, T/C [20]: 72.9%
viability, T/C [21]: 63.9%
viability, T/C [22]: 48.6%
viability, T/C [23]: 58.4%
viability, T/C [24]: 47.9%
viability, T/C [25]: 107%
viability, T/C [26]: 97.7%
viability, T/C [27]: 81.5%
viability, T/C [28]: 47%
viability, T/C [29]: 54.3%
viability, T/C [30]: 49.1%

COc1c(OCCCN2CCOCC2)ccc2c3n(c(=NC(=O)c4cnc(N)nc4)nc12)CCN3 + Cc1c(S(C)(=O)=O)c(-c2cc(F)cc(N3CCN(c4ccc(NS(=O)(=O)c5ccc(NC(CCN6CCC(C(=O)OCCCP(=O)(O)O)CC6)CSc6ccccc6)c(S(=O)(=O)C(F)(F)F)c5)cc4)CC3)c2)c(-c2ccc(Cl)cc2)n1C(C)C
IC50 (second compound 0.1 µM): 0.028 µM
IC50 (second compound 0.316 µM): 0.0181 µM
IC50 (second compound 1 µM): 0.0179 µM
IC50 (second compound 3.16 µM): 0.0154 µM
IC50 (second compound 10 µM): 0.0177 µM
viability, T/C [1]: 81.8%
viability, T/C [2]: 73.3%
viability, T/C [3]: 46.5%
viability, T/C [4]: 22%
viability, T/C [5]: 14.2%
viability, T/C [6]: 5.21%
viability, T/C [7]: 74.7%
viability, T/C [8]: 63.4%
viability, T/C [9]: 37%
viability, T/C [10]: 20.3%
viability, T/C [11]: 9.08%
viability, T/C [12]: 2.87%
viability, T/C [13]: 68.8%
viability, T/C [14]: 65.4%
viability, T/C [15]: 35.3%
viability, T/C [16]: 10.8%
viability, T/C [17]: 5.94%
viability, T/C [18]: 2.46%
viability, T/C [19]: 64.5%
viability, T/C [20]: 63.7%
viability, T/C [21]: 29.7%
viability, T/C [22]: 10.2%
viability, T/C [23]: 3.29%
viability, T/C [24]: 1.07%
viability, T/C [25]: 86.5%
viability, T/C [26]: 68.7%
viability, T/C [27]: 31.2%
viability, T/C [28]: 7.93%
viability, T/C [29]: 2.43%
viability, T/C [30]: 1.35%

NC(=O)C(=Cn1cnc(-c2cc(C(F)(F)F)cc(C(F)(F)F)c2)n1)c1cncnc1 + Cc1c(S(C)(=O)=O)c(-c2cc(F)cc(N3CCN(c4ccc(NS(=O)(=O)c5ccc(NC(CCN6CCC(C(=O)OCCCP(=O)(O)O)CC6)CSc6ccccc6)c(S(=O)(=O)C(F)(F)F)c5)cc4)CC3)c2)c(-c2ccc(Cl)cc2)n1C(C)C
IC50 (second compound 0.1 µM): 0.199 µM
IC50 (second compound 0.316 µM): 0.137 µM
IC50 (second compound 1 µM): 0.106 µM
IC50 (second compound 3.16 µM): 0.0639 µM
IC50 (second compound 10 µM): 0.0668 µM
viability, T/C (second compound 0.1 µM, first compound 0.000949 µM): 106%
viability, T/C (second compound 0.1 µM, first compound 0.003 µM): 99.1%
viability, T/C (second compound 0.1 µM, first compound 0.00949 µM): 91.7%
viability, T/C (second compound 0.1 µM, first compound 0.03 µM): 79.6%
viability, T/C (second compound 0.1 µM, first compound 0.0949 µM): 82.2%
viability, T/C (second compound 0.1 µM, first compound 0.3 µM): 34.8%
viability, T/C (second compound 0.316 µM, first compound 0.000949 µM): 100%
viability, T/C (second compound 0.316 µM, first compound 0.003 µM): 96.2%
viability, T/C (second compound 0.316 µM, first compound 0.00949 µM): 93.7%
viability, T/C (second compound 0.316 µM, first compound 0.03 µM): 77.6%
viability, T/C (second compound 0.316 µM, first compound 0.0949 µM): 60.3%
viability, T/C (second compound 0.316 µM, first compound 0.3 µM): 29.3%
viability, T/C (second compound 1 µM, first compound 0.000949 µM): 98.3%
viability, T/C (second compound 1 µM, first compound 0.003 µM): 103%
viability, T/C (second compound 1 µM, first compound 0.00949 µM): 79.7%
viability, T/C (second compound 1 µM, first compound 0.03 µM): 79%
viability, T/C (second compound 1 µM, first compound 0.0949 µM): 53.1%
viability, T/C (second compound 1 µM, first compound 0.3 µM): 19.1%
viability, T/C (second compound 3.16 µM, first compound 0.000949 µM): 97.1%
viability, T/C (second compound 3.16 µM, first compound 0.003 µM): 98.5%
viability, T/C (second compound 3.16 µM, first compound 0.00949 µM): 91.8%
viability, T/C (second compound 3.16 µM, first compound 0.03 µM): 66.3%
viability, T/C (second compound 3.16 µM, first compound 0.0949 µM): 41.9%
viability, T/C (second compound 3.16 µM, first compound 0.3 µM): 17%
viability, T/C (second compound 10 µM, first compound 0.000949 µM): 119%
viability, T/C (second compound 10 µM, first compound 0.003 µM): 121%
viability, T/C (second compound 10 µM, first compound 0.00949 µM): 111%
viability, T/C (second compound 10 µM, first compound 0.03 µM): 85.2%
viability, T/C (second compound 10 µM, first compound 0.0949 µM): 34.5%
viability, T/C (second compound 10 µM, first compound 0.3 µM): 8.64%

NC1CCC(NC2CC2c2ccccc2)CC1 (stereo not given) + Cc1c(S(C)(=O)=O)c(-c2cc(F)cc(N3CCN(c4ccc(NS(=O)(=O)c5ccc(NC(CCN6CCC(C(=O)OCCCP(=O)(O)O)CC6)CSc6ccccc6)c(S(=O)(=O)C(F)(F)F)c5)cc4)CC3)c2)c(-c2ccc(Cl)cc2)n1C(C)C
IC50 (second compound 0.1 µM): > 0.1 µM
IC50 (second compound 0.316 µM): > 0.1 µM
IC50 (second compound 1 µM): > 0.1 µM
IC50 (second compound 3.16 µM): > 0.1 µM
IC50 (second compound 10 µM): > 0.1 µM
viability, T/C (second compound 0.1 µM, first compound 0.000316 µM): 86%
viability, T/C (second compound 0.1 µM, first compound 0.001 µM): 103%
viability, T/C [1]: 89.5%
viability, T/C [2]: 94.1%
viability, T/C [3]: 103%
viability, T/C [4]: 92.3%
viability, T/C (second compound 0.316 µM, first compound 0.000316 µM): 87.9%
viability, T/C (second compound 0.316 µM, first compound 0.001 µM): 95.6%
viability, T/C [7]: 85%
viability, T/C [8]: 81.9%
viability, T/C [9]: 90.3%
viability, T/C [10]: 93.1%
viability, T/C (second compound 1 µM, first compound 0.000316 µM): 94.7%
viability, T/C (second compound 1 µM, first compound 0.001 µM): 94.2%
viability, T/C [13]: 90.7%
viability, T/C [14]: 81%
viability, T/C [15]: 92.4%
viability, T/C [16]: 86.3%
viability, T/C (second compound 3.16 µM, first compound 0.000316 µM): 94.9%
viability, T/C (second compound 3.16 µM, first compound 0.001 µM): 95.5%
viability, T/C [19]: 83.7%
viability, T/C [20]: 76%
viability, T/C [21]: 93.2%
viability, T/C [22]: 87.8%
viability, T/C (second compound 10 µM, first compound 0.000316 µM): 115%
viability, T/C (second compound 10 µM, first compound 0.001 µM): 110%
viability, T/C [25]: 120%
viability, T/C [26]: 107%
viability, T/C [27]: 104%
viability, T/C [28]: 112%
